Laboratory results from patent US20230117034A1, “PYRAZOLOTRIAZINES” (Bayer Aktiengesellschaft, priority 2019, published 2023).

Experiments:
[1] = target: T1, CDK9/CycT1 (Homo sapiens, UniProt P50750); experiment: CDK9/CycT1 high ATP kinase assay (TR-FRET, 2 mM ATP); format: biochemical; conditions: 2 mM ATP (high ATP); median; read-out: CDK9/CyclinT1, 2 mM ATP (high ATP), IC50 (median)
T1 construct: Recombinant full-length His-tagged human CDK9 and CycT1; purchased Life Technologies PV4131; host or cells: insect cells
T1 sequence (P50750 whole entry): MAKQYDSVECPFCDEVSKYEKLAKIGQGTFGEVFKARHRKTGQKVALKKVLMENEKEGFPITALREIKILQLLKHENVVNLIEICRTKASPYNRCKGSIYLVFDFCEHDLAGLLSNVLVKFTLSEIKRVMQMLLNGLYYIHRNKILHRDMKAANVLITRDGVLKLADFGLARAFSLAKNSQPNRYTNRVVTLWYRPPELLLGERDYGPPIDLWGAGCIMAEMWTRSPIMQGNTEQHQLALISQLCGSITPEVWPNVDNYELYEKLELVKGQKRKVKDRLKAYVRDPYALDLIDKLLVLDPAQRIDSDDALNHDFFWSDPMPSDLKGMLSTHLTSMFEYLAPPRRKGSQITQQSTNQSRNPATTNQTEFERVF
T1 sequence (O60563 whole entry partner): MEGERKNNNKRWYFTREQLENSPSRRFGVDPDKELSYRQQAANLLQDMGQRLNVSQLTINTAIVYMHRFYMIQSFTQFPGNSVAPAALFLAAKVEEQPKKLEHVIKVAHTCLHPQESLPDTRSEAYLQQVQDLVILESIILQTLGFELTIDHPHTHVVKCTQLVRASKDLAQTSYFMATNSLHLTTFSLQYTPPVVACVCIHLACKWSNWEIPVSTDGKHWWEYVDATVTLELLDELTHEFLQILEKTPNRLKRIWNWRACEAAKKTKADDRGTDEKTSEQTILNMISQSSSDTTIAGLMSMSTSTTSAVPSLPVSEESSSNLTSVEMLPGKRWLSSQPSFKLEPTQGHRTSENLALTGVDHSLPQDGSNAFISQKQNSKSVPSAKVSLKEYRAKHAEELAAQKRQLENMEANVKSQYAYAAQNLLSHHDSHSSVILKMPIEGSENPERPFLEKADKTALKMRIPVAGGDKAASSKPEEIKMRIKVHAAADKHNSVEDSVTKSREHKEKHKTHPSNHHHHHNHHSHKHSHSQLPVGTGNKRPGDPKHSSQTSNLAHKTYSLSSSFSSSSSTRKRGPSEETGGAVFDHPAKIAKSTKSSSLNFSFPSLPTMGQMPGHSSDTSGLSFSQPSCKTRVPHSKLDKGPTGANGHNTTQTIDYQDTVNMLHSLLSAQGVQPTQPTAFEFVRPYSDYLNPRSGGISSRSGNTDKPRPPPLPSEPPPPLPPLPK
Summary of the method: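 Full-length His-tagged human CDK9/CycT1 (insect cell, ~0.5 μg/mL) preincubated 15 min at 22 °C with compound in Tris pH 8.0, MgCl2, DTT buffer before reaction with biotinylated peptide substrate at high ATP (2 mM).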

[2] = system: BRCA1 mRNA expression in MDA-MB-231 cells; experiment: qRT-PCR assay: BRCA1 mRNA expression in MDA-MB-231; format: cell-based, human; conditions: Homo sapiens, MDA-MB-231, Inhibition of BRCA1 mRNA expression in MDA-MB-231 cells; median; read-out: RTqPCR-MDA-MB-231, IC50, BRCA1 (median)
Summary of the method: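 Read-out is RT-qPCR with expression normalised to the GAPDH housekeeping gene. Before RNA isolation, plated cells (200,000 per well, 24 h attachment) received test substances continuously over 24 h, and 600 ng of RNA served as cDNA template.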

| Compound | IC50 [1] | IC50 [2] |
| --- | --- | --- |
| OCC1COCCN1c1nc(NCc2nc3ccccc3[nH]2)n2ncc(Br)c2n1 (stereo not drawn) [Example 67, (4-{4-[(1H-benzimidazol-2-ylmethyl)amino]-8-bromopyrazolo[1,5-a][1,3,5]triazin-2-yl}morpholin-3-yl)methanol] | > 19.4 µM | 24.8 nM |
| Clc1ccc(-c2cnc(CNc3nc(N4CCOCC4)nc4c(Br)cnn34)[nH]2)cc1 [Example 72, 8-bromo-N-{[5-(4-chlorophenyl)-1H-imidazol-2-yl]methyl}-2-(morpholin-4-yl)pyrazolo[1,5-a][1,3,5]triazin-4-amine] | 6.72 µM | 38.6 nM |
| C[C@@H]1CN(c2nc(NCc3nc4ccccc4[nH]3)n3ncc(Br)c3n2)C[C@H](C)O1 [Example 73, N-[(1H-benzimidazol-2-yl)methyl]-8-bromo-2-[(2R,6S)-2,6-dimethylmorpholin-4-yl]pyrazolo[1,5-a][1,3,5]triazin-4-amine] | 9.38 µM | 49.5 nM |
| Cc1ccccc1-c1cnc(CNc2nc(N3CCOCC3)nc3c(Br)cnn23)[nH]1 [Example 85, 8-bromo-N-{[5-(2-methylphenyl)-1H-imidazol-2-yl]methyl}-2-(morpholin-4-yl)pyrazolo[1,5-a][1,3,5]triazin-4-amine] | > 10.8 µM | 18.3 nM |
| Brc1cnn2c(NCc3ncc(-c4ccccn4)[nH]3)nc(N3CCOCC3)nc12 [Example 90, 8-bromo-2-(morpholin-4-yl)-N-{[5-(pyridin-2-yl)-1H-imidazol-2-yl]methyl}pyrazolo[1,5-a][1,3,5]triazin-4-amine] | 9.35 µM | 13.7 nM |
| Fc1cccc(-c2cnn3c(NCc4nc5ccccc5[nH]4)nc(N4CCOCC4)nc23)c1 [Example 91, N-[(1H-benzimidazol-2-yl)methyl]-8-(3-fluorophenyl)-2-(morpholin-4-yl)pyrazolo[1,5-a][1,3,5]triazin-4-amine] | > 20 µM | 85.5 nM |
| c1ccc2[nH]c(CNc3nc(N4CCOCC4)nc4c(C5CC5)cnn34)nc2c1 [Example 92, N-[(1H-benzimidazol-2-yl)methyl]-8-cyclopropyl-2-(morpholin-4-yl)pyrazolo[1,5-a][1,3,5]triazin-4-amine] | > 20 µM | 13.3 nM |
| CN1CCN(c2nc(NCc3nc4cc(Cl)c(Cl)cc4[nH]3)n3ncc(C4CC4)c3n2)CC1 [Example 305, 8-cyclopropyl-N-[(5,6-dichloro-1H-benzimidazol-2-yl)methyl]-2-(4-methylpiperazin-1-yl)pyrazolo[1,5-a][1,3,5]triazin-4-amine] | > 20 µM | 6.23 nM |
| CN1CCN(c2nc(NCc3nc4cc(C(F)(F)F)ccc4[nH]3)n3ncc(C4CC4)c3n2)CC1 [Example 313, 8-cyclopropyl-2-(4-methylpiperazin-1-yl)-N-{[5-(trifluoromethyl)-1H-benzimidazol-2-yl]methyl}pyrazolo[1,5-a][1,3,5]triazin-4-amine] | > 20 µM | 22.1 nM |
| Fc1ccc2[nH]c(CNc3nc(N4CCOCC4)nc4c(-c5cnn(C(F)F)c5)cnn34)nc2c1F [Example 422, N-[(4,5-difluoro-1H-benzimidazol-2-yl)methyl]-8-[1-(difluoromethyl)-1H-pyrazol-4-yl]-2-(morpholin-4-yl)pyrazolo[1,5-a][1,3,5]triazin-4-amine] | > 20 µM | 7.43 nM |
| CCc1cnn2c(NCc3nc4c(F)c(F)ccc4[nH]3)nc(N3CCN(C)CC3)nc12.O=CO [Example 435, formic acid N-[(4,5-difluoro-1H-benzimidazol-2-yl)methyl]-8-ethyl-2-(4-methylpiperazin-1-yl)pyrazolo[1,5-a][1,3,5]triazin-4-amine] | > 20 µM | 0.959 nM |

Now those with a lower IC50 [1], led by results:

| IC50 [1] | IC50 [2] | Compound |
| --- | --- | --- |
| 5.34 µM | 43.4 nM | CC1(C)CN(c2nc(NCc3nnc(-c4ccccc4)[nH]3)n3ncc(Br)c3n2)CCO1 [Example 68, 8-bromo-2-(2,2-dimethylmorpholin-4-yl)-N-[(5-phenyl-4H-1,2,4-triazol-3-yl)methyl]pyrazolo[1,5-a][1,3,5]triazin-4-amine] |
| 0.569 µM | 55.9 nM | OC[C@@H]1CCCCN1c1nc(NCc2nnc(-c3ccccc3)[nH]2)n2ncc(Br)c2n1 [Example 70, [(2S)-1-(8-bromo-4-{[(5-phenyl-4H-1,2,4-triazol-3-yl)methyl]amino}pyrazolo[1,5-a][1,3,5]triazin-2-yl)piperidin-2-yl]methanol] |
| 1.76 µM | 21.1 nM | OC[C@H]1CCCCN1c1nc(NCc2nnc(-c3ccccc3)[nH]2)n2ncc(Br)c2n1 [Example 71, [(2R)-1-(8-bromo-4-{[(5-phenyl-4H-1,2,4-triazol-3-yl)methyl]amino}pyrazolo[1,5-a][1,3,5]triazin-2-yl)piperidin-2-yl]methanol] |
| 5.43 µM | 18.3 nM | COc1cccc(-c2cnc(CNc3nc(N4CCOCC4)nc4c(Br)cnn34)[nH]2)c1 [Example 80, 8-bromo-N-{[5-(3-methoxyphenyl)-1H-imidazol-2-yl]methyl}-2-(morpholin-4-yl)pyrazolo[1,5-a][1,3,5]triazin-4-amine] |
| 3.44 µM | 118 nM | Brc1cnn2c(NCc3ncc(-c4cccnc4)[nH]3)nc(N3CCOCC3)nc12 [Example 84, 8-bromo-2-(morpholin-4-yl)-N-{[5-(pyridin-3-yl)-1H-imidazol-2-yl]methyl}pyrazolo[1,5-a][1,3,5]triazin-4-amine] |
| 5.27 µM | 17.1 nM | Fc1ccccc1-c1cnc(CNc2nc(N3CCOCC3)nc3c(Br)cnn23)[nH]1 [Example 86, 8-bromo-N-{[5-(2-fluorophenyl)-1H-imidazol-2-yl]methyl}-2-(morpholin-4-yl)pyrazolo[1,5-a][1,3,5]triazin-4-amine] |
| 5.13 µM | 10.7 nM | COc1ccccc1-c1cnc(CNc2nc(N3CCOCC3)nc3c(Br)cnn23)[nH]1 [Example 87, 8-bromo-N-{[5-(2-methoxyphenyl)-1H-imidazol-2-yl]methyl}-2-(morpholin-4-yl)pyrazolo[1,5-a][1,3,5]triazin-4-amine] |
